Assay results taken from US11572399B2, “Long-acting GIP peptide analogues” (University of Copenhagen, priority 2017, dated 2023).

Key:
human GIP receptor [1] = biological target: T1, human GIP receptor (Homo sapiens, UniProt P48546); assay: cAMP accumulation assay, antagonism of a GIP-mediated cAMP response (50-80% of max); format: cell-based; details: transiently transfected COS-7 cells; Table 1 and text; read-out: cAMP antagonism nM (IC50, antagonistic potency)
T1 construct: host or cells: COS-7, transient transfection (calcium phosphate), cDNA in pCMV-Script
T1 sequence (P48546 22-466): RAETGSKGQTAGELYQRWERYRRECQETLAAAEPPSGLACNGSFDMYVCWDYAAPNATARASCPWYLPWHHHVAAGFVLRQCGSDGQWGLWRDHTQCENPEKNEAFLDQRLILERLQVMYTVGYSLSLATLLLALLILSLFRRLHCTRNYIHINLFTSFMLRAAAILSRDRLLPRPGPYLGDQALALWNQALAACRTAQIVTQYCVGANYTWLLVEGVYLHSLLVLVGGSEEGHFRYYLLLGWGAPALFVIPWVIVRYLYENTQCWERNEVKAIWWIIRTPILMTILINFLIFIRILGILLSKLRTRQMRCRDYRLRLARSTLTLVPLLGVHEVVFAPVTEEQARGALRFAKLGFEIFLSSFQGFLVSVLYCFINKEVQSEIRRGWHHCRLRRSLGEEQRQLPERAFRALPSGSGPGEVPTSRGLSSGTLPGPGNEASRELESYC
Method: The day after, the cells were washed twice with Hepes buffered saline (HBS) buffer and incubated with HBS and 1 mM 3-isobutyl-1-methylxanthine (IBMX) for 30 min at 37° C. […] The HitHunter™ cAMP XS assay (DiscoveRx) was carried out according to the manufacturer's instructions.

human GIP receptor [2] = biological target: T1, human GIP receptor; assay: cAMP accumulation assay, agonism (ligand alone); format: cell-based; details: COS-7 cells, Table 1; for Emax: COS-7, intrinsic cAMP activity; for cAMP agonism Emax: intrinsic cAMP activity

CC[C@H](C)[C@H](NC(=O)[C@H](CO)NC(=O)[C@H](Cc1ccc(O)cc1)NC(=O)[C@H](CC(=O)O)NC(=O)[C@H](CO)NC(=O)[C@@H](NC(=O)[C@H](Cc1ccccc1)NC(=O)[C@H](CCCCNC(=O)CCCCCCCCCCCCCCC(=O)O)NC(=O)CNC(=O)[C@@H](N)CCC(=O)O)[C@@H](C)CC)C(=O)N[C@@H](C)C(=O)N[C@@H](CCSC)C(=O)N[C@@H](CC(=O)O)C(=O)N[C@@H](CCCCN)C(=O)N[C@H](C(=O)N[C@@H](Cc1c[nH]cn1)C(=O)N[C@@H](CCC(N)=O)C(=O)N[C@@H](CCC(N)=O)C(=O)N[C@@H](CC(=O)O)C(=O)N[C@@H](Cc1ccccc1)C(=O)N[C@H](C(=O)N[C@@H](CC(N)=O)C(=O)N[C@@H](Cc1c[nH]c2ccccc12)C(=O)N[C@@H](CC(C)C)C(=O)N[C@@H](CC(C)C)C(=O)N[C@@H](C)C(=O)N[C@@H](CCC(N)=O)C(=O)N[C@@H](CCCCN)C(N)=O)C(C)C)[C@@H](C)CC [AT296, [hGIP(3-30)NH2[T5K]-C16diacid/5]] was tested, and the IC50 (human GIP receptor [1]) was 14 nM, the Emax (human GIP receptor [2]) was 6.7% and the EC50 (human GIP receptor [2]; read-out: cAMP agonism nM (EC50)) was 2.6 nM.
CCCCCCCCCCCCCCCC(=O)NCCCC[C@H](NC(=O)[C@H](CC(=O)O)NC(=O)[C@H](CCSC)NC(=O)[C@H](C)NC(=O)[C@@H](NC(=O)[C@H](CO)NC(=O)[C@H](Cc1ccc(O)cc1)NC(=O)[C@H](CC(=O)O)NC(=O)[C@H](CO)NC(=O)[C@@H](NC(=O)[C@H](Cc1ccccc1)NC(=O)[C@@H](N)[C@@H](C)O)[C@@H](C)CC)[C@@H](C)CC)C(=O)N[C@H](C(=O)N[C@@H](Cc1c[nH]cn1)C(=O)N[C@@H](CCC(N)=O)C(=O)N[C@@H](CCC(N)=O)C(=O)N[C@@H](CC(=O)O)C(=O)N[C@@H](Cc1ccccc1)C(=O)N[C@H](C(=O)N[C@@H](CC(N)=O)C(=O)N[C@@H](Cc1c[nH]c2ccccc12)C(=O)N[C@@H](CC(C)C)C(=O)N[C@@H](CC(C)C)C(=O)N[C@@H](C)C(=O)N[C@@H](CCC(N)=O)C(=O)N[C@@H](CCCCN)C(N)=O)C(C)C)[C@@H](C)CC [AT125, [hGIP(5-30)NH2—C16/16]] showed an IC50 (human GIP receptor [1]) of 131 nM and an Emax (human GIP receptor [2]) of 0%.
CC[C@H](C)[C@H](NC(=O)[C@H](CO)NC(=O)[C@H](Cc1ccc(O)cc1)NC(=O)[C@H](CC(=O)O)NC(=O)[C@H](CO)NC(=O)[C@H](CCCCNC(=O)CCCCCCCCCCCCCCC(=O)O)NC(=O)[C@H](Cc1ccccc1)NC(=O)[C@@H](NC(=O)CNC(=O)[C@@H](N)CCC(=O)O)[C@@H](C)O)C(=O)N[C@@H](C)C(=O)N[C@@H](CCSC)C(=O)N[C@@H](CC(=O)O)C(=O)N[C@@H](CCCCN)C(=O)N[C@H](C(=O)N[C@@H](Cc1c[nH]cn1)C(=O)N[C@@H](CCC(N)=O)C(=O)N[C@@H](CCC(N)=O)C(=O)N[C@@H](CC(=O)O)C(=O)N[C@@H](Cc1ccccc1)C(=O)N[C@H](C(=O)N[C@@H](CC(N)=O)C(=O)N[C@@H](Cc1c[nH]c2ccccc12)C(=O)N[C@@H](CC(C)C)C(=O)N[C@@H](CC(C)C)C(=O)N[C@@H](C)C(=O)N[C@@H](CCC(N)=O)C(=O)N[C@@H](CCCCN)C(N)=O)C(C)C)[C@@H](C)CC [AT298, [hGIP(3-30)NH2[I7K]-C16diacid/7]] was tested, and the IC50 (human GIP receptor [1]) was 33 nM and the “cAMP agonism Emax” value (human GIP receptor [2]) was “no ag”.
With CC[C@H](C)[C@H](NC(=O)[C@H](CO)NC(=O)[C@H](Cc1ccc(O)cc1)NC(=O)[C@H](CC(=O)O)NC(=O)[C@H](CO)NC(=O)[C@@H](NC(=O)[C@H](Cc1ccccc1)NC(=O)[C@@H](NC(=O)CNC(=O)[C@@H](N)CCC(=O)O)[C@@H](C)O)[C@@H](C)CC)C(=O)N[C@@H](C)C(=O)N[C@@H](CCSC)C(=O)N[C@@H](CC(=O)O)C(=O)N[C@@H](CCCCNC(=O)CCCCCCCCCCCCCCC(=O)O)C(=O)N[C@H](C(=O)N[C@@H](Cc1c[nH]cn1)C(=O)N[C@@H](CCC(N)=O)C(=O)N[C@@H](CCC(N)=O)C(=O)N[C@@H](CC(=O)O)C(=O)N[C@@H](Cc1ccccc1)C(=O)N[C@H](C(=O)N[C@@H](CC(N)=O)C(=O)N[C@@H](Cc1c[nH]c2ccccc12)C(=O)N[C@@H](CC(C)C)C(=O)N[C@@H](CC(C)C)C(=O)N[C@@H](C)C(=O)N[C@@H](CCC(N)=O)C(=O)N[C@@H](CCCCN)C(N)=O)C(C)C)[C@@H](C)CC [AT370, [hGIP(3-30)NH2—C16diacid/16]] the IC50 (human GIP receptor [1]) was 25 nM and the “cAMP agonism Emax” value (human GIP receptor [2]) was “no ag”.
